Experimental data: patent US10501450B2, “Anhydrate-free polymorphically pure micronized crystalline brexpiprazole di-hydrate for use in intramuscular injectable sustained release formulations” (HEXAL AG, priority 2016, dated 2019)
Read-outs that look alike come from different tables or passages of the source.

Key:
[1] = Polymorphic stability of brexpiprazole dihydrate during wet ball milling, checked by PXRD; format: physicochemical; details: ball mill 25 Hz, 0.2 mL water, 10° C.
Protocol: The powder X-ray diffractogram was obtained with a PANalytical X'Pert PRO diffractometer equipped with a theta/theta coupled goniometer in transmission geometry, Cu-Kalpha1,2 radiation (wavelength 0.15419 nm) with a focusing mirror and a solid state PIXcel detector. The diffractogram was recorded at a tube voltage of 45 kV and a tube current of 40 mA, applying a stepsize of 0.013° 2-Theta with 40 s per step (255 channels) in the angular range of 2° to 40° 2-Theta at ambient conditions. A typical precision of the 2-Theta values is in the range of ±0.2° 2-Theta. […]
500 mg brexpiprazole dihydrate from comparative example 1 were milled in the presence of 0.2 mL water at 10° C. with a Retsch MM301 ball mill at 25 Hz for 5 min (1.5 ml jacket and 1 steel ball of 5 mm diameter). The obtained micronized crystalline material was analysed by PXRD and PSD. […] (Determined by the laser diffraction method in the context of a circulating aqueous suspension as the percent volume at each particle size and measured by a Malvern Mastersizer 3000 laser diffraction analyzer.)
500 mg brexpiprazole dihydrate from comparative example 1 were milled in the presence of 0.2 mL water at 10° C. with a Retsch MM301 ball mill at 25 Hz for 15 min (1.5 ml jacket and 1 steel ball of 5 mm diameter). The obtained micronized crystalline material was analysed by PXRD and PSD. […]

[2] = Particle size distribution by laser diffraction (Malvern Mastersizer 3000, circulating aqueous suspension); format: physicochemical; details: volume distribution
Protocol: For the purpose of this invention, particle size distribution is determined as the percent volume at each particle size and measured by a laser diffraction method in the context of a circulating aqueous suspension. A Malvern Mastersizer 3000 laser diffraction analyzer equipped with a Hydro EV measurement cell was used. About 50 mg of sample were filled into a 15 ml glass test tube. The sample was wetted with two drops of Tween 80 and vortexed. Then the thoroughly wetted sample was dispersed in about 7 mL of UHQ-water by vortexing until the particles were dispersed. The suspension was treated for 7 minutes in an ultrasonification bath at RT (Elma S50H). The well dispersed suspension was then measured in water by adding a sample from the center of the test tube containing the well dispersed suspension to a water-filled dispersion unit prefilled with 70 mL of water. The sample in the 70 mL dispersion unit was kept under stirring at 2000 rpm. More sample from the test tube was added, until a targeted obscuration range of 10-25 percent was achieved. The Malvern Mastersizer was operated using the following parameters:
Measurement occurred after an optical alignment of the laser was done and after a background measurement was run. A measurement sequence consisted of eight individual measurements for which the mean value was represented as a histogram.
d90 as used herein means that 90% of the particles (based on volume) are smaller than or equal to the indicated size.
d50 as used herein means that 50% of the particles (based on volume) are smaller than or equal to the indicated size.
d10 as used herein means that 10% of the particles (based on volume) are smaller than or equal to the indicated size.
Particle size distribution was measured with a Malvern Mastersizer 3000 laser diffraction analyzer equipped with a Hydro EV measurement cell. About 50 mg of sample were given into a test tube. The sample was wetted with two drops of Tween 80 and dispersed in about 7 ml of water on a Vortexer. The suspension was treated for 7 minutes in a ultrasonification bath (Elma S50H). The well dispersed suspension was afterwards measured in water at a targeted obscuration range of 10-25 percent while circulating the aqueous suspension and stirring the suspension reservoir at 2000 rpm after a waiting period of three minutes. A fraunhofer optical model was utilized to deconvolute the sample scattering patterns to yield the resultant particle size distributions. Analysis model: General purpose/normal sensitivity. Measuring/background time: about 10 sec

[3] = Solubility in water at 25° C.; format: physicochemical
From the text: The brexpiprazole dihydrate can then be added to an aqueous medium in which it is hardly soluble to form a suspension.

[4] = rats, intramuscular injection, 56 days after the injection, cited from earlier work

Question: With `O=c1ccc2ccc(OCCCCN3CCN(c4cccc5sccc45)CC3)cc2[nH]1` [Example 1] as the molecule, how does the “transformation of dihydrate to anhydrate form I during micronization (PXRD peaks at 6.8° and 17.4°)” value ([1]; 5 min) read?
Answer: had not transformed to brexpiprazole anhydrate form I

Question: And the “particle size distribution d10” value [2]?
Answer: 1.35 μm

Question: And the “particle size distribution d50” value [2]?
Answer: 8.24 μm

Question: What about the “particle size distribution d90” value [2] of the same molecule?
Answer: 21 μm

Question: For `O=c1ccc2ccc(OCCCCN3CCN(c4cccc5sccc45)CC3)cc2[nH]1` [brexpiprazole anhydrate], which “solubility at 25° C. in water” value [3] is on record?
Answer: 18 µg/mL

Question: What about the “crystals detectable at the injection site” value [4] of the same molecule?
Answer: no longer detectable

Question: Which solubility ([3]; 25 °C) does the source give for `O=c1ccc2ccc(OCCCCN3CCN(c4cccc5sccc45)CC3)cc2[nH]1` [brexpiprazole dihydrate, 7-[4-[4-(1-Benzothiophen-4-yl)piperazin-1-yl]butoxy]quinolin-2(1H)-one dihydrate] here?
Answer: 10 µg/mL

Question: What about the “crystals detectable at the injection site” value ([4]; dihydrate) of the same molecule?
Answer: can still be detected

Question: What about the “particle size distribution d90” value ([2]; listed as Reference Example 1, dihydrate) of the same molecule?
Answer: above 25 μm

Question: With `O=c1ccc2ccc(OCCCCN3CCN(c4cccc5sccc45)CC3)cc2[nH]1` [Example 2] as the molecule, how does the “transformation of dihydrate to anhydrate form I during micronization (PXRD peaks at 6.8°, 10.0° and 17.4°)” value ([1]; 15 min) read?
Answer: had not transformed to brexpiprazole anhydrate form I

Question: And the “particle size distribution d10” value [2]?
Answer: 1.15 μm

Question: And the “particle size distribution d50” value [2]?
Answer: 7.04 μm

Question: And the “particle size distribution d90” value [2]?
Answer: 19 μm
